The results in this text go back to patent US5438056A (priority 1993, dated 1995).

For assay [1], the target named is cholesterol ester hydrolase (Homo sapiens, UniProt P19835). Description: biochemical.
Assay [2] relates to cholesterol absorption. Description: animal or person. In kind it is in vivo, normal rat.
[3] abbreviates: Rattus norvegicus, po, 6 h, read-out: % Decrease ^14 C Chol. Absorption at 6 hr in normal rat.

Where two headings read alike, the source gives them in different places.

Chain of cholesterol ester hydrolase (P19835 21-753): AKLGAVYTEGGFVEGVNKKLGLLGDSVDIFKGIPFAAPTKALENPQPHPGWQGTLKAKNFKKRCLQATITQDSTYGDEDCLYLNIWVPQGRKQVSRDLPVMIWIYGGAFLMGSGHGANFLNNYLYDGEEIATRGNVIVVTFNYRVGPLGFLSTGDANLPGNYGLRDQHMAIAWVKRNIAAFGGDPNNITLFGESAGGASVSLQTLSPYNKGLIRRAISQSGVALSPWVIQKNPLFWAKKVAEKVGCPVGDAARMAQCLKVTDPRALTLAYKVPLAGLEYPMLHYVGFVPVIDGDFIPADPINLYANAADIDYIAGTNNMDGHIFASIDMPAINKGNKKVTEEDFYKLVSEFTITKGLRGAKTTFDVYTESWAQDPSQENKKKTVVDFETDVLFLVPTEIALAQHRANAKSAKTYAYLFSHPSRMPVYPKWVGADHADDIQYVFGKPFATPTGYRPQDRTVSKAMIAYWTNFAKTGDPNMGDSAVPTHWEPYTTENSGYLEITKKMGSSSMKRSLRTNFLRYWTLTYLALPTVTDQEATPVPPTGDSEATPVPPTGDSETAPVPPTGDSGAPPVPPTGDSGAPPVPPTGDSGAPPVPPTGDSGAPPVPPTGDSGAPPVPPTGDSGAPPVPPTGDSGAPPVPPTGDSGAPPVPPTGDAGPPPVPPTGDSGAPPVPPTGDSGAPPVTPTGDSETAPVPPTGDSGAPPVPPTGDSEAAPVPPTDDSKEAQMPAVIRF

Consider `CCCCCCCCNC(=O)ON=C(C1=CC(=O)C(C)(C)O1)c1ccccc1` [Example 1, 2,2-Dimethyl-5-[[[[(octylamino)carbonyl]oxy]imino]phenylmethyl]-3(2H)-furanone], for which the IC50 (in general, the concentration that inhibits the measured activity by half) in assay [1] was 1900 nM. Besides, the inhibition in vivo at 100 mg/kg in assay [2] (setting [3]) was found to be 39%. In the same order, the values of `CCCCCCCCCCCCNC(=O)ON=C(C1=CC(=O)C(C)(C)O1)c1ccccc1` [Example 2, 2,2-Dimethyl-5-[[[[(dodecylamino)carbonyl]oxy]imino]phenylmethyl]-3(2H)-furanone] are 570 nM and 76%. With `CC1(C)CCC(NC(=O)ON=C(C2=CC(=O)C(C)(C)O2)c2ccccc2)CC1` [Example 3, 2,2-Dimethyl-5-[[[[[(4,4dimethylcyclohexyl)amino]carbonyl]oxy]imino]phenylmethyl]-3(2H)-furanone], the IC50 in assay [1] worked out at 100 nM. Besides, the inhibition in vivo at 100 mg/kg in assay [2] (setting [3]) was determined as 44%. For the molecule `CCCCCCCC/C=C\CCCCCCCCNC(=O)ON=C(C1=CC(=O)C(C)(C)O1)c1ccccc1` [Example 4, 2,2-Dimethyl-5-[[[[[(Z)-9-octadecenylamino]carbonyl]oxy]imino]phenylmethyl]-3(2H)-furanone], in assay [1] (read-out: IC50 against CEH), the IC50 is 5400 nM. In addition, the inhibition in vivo at 100 mg/kg in assay [2] (setting [3]) turned out to be 74%. Regarding `CCCCCCCC/C=C/CCCCCCCCCNC(=O)ON=C(C1=CC(=O)C(C)(C)O1)c1ccccc1` [Example 5, 2,2-Dimethyl-5-[[[[[(E)-10-nonadecenylamino]carbonyl]oxy]imino]phenylmethyl]-3(2H)-furanone], in assay [1], the concentration for half-maximal inhibition (IC50) is 25000 nM. In addition, the inhibition in vivo at 25 mg/kg in assay [2] (setting [3]) turned out to be 39%. `CCCCC/C=C/C/C=C/CCCCCCCCNC(=O)ON=C(C1=CC(=O)C(C)(C)O1)c1ccccc1` [Example 6, 2,2-Dimethyl-5-[[[[[(E,E)-9, 12-octadecadienylamino]carbonyl]oxy]imino]phenylmethyl]-3(2H)-furanone]: the IC50 in assay [1] was found to be 2700 nM. The inhibition in vivo at 25 mg/kg in assay [2] (setting [3]) stood at 50%. Consider `CCCCCCCCNC(=O)ON=C(C1=CC(=O)C(C)(C2CCCCC2)O1)c1ccccc1` (centres unmarked) [Example 7, 2-Cyclohexyl-2-methyl-5-[[[[(octylamino)carbonyl]oxy]imino]phenylmethyl]-3(2H)-furanone], for which half-maximal inhibition in assay [1] (IC50) was put at 1900 nM. In addition, the inhibition in vivo at 100 mg/kg in assay [2] (setting [3]) amounted to 47%. Turning to `CCCCCCCCNC(=O)ON=C(C1=CC(=O)C(C)(c2ccccc2)O1)c1ccccc1` (centres unmarked) [Example 8], the IC50 in assay [1] is 130 nM. Also, in assay [2] (setting [3]), the inhibition in vivo at 100 mg/kg was 46%. The like results for `CCCCCCCCNC(=O)ON=C(C1=CC(=O)C(C)(c2ccc(Cl)cc2)O1)c1ccccc1` (centres unmarked) [Example 9, 2-(4-Chlorophenyl)-2-methyl-5-[[[[(octylamino)carbonyl]oxy]imino]phenylmethyl]-3(2H)-furanone] were, in that order, 2640 nM and 62%. Regarding `CCCCCCCCNC(=O)ON=C(C1=CC(=O)C(C)(c2ccc(C(C)(C)C)cc2)O1)c1ccccc1` (centres unmarked) [Example 10, 2-[4-(1,1-Dimethylethyl)phenyl]-2-methyl-5-[[[[(octylamino)carbonyl]oxy]imino]phenylmethyl]-3(2H)-furanone], in assay [1], 12700 nM corresponded to half-maximal inhibition (IC50). Also, in assay [2] (setting [3]), the inhibition in vivo at 100 mg/kg was determined as 46%. In turn, `CCCCCCCCNC(=O)ON=C(CCc1ccccc1)C1=CC(=O)C(C)(C)O1` [Example 11] had an IC50 in assay [1] of 1500 nM. In addition, in assay [2] (setting [3]), the inhibition in vivo at 100 mg/kg stood at 57%. The like results for `CCCCCCCCCCCCNC(=O)ON=C(C1=C(Br)C(=O)C(C)(C)O1)c1ccccc1` [Example 12, 2,2-Dimethyl-4-bromo-5-[[[[(dodecylamino)carbonyl]oxy]imino]phenylmethyl]3(2H)-furanone] were, in that order, 2270 nM and 69%.

As for `CCCCCCCCCCCCNC(=O)ON=C(C1=CC(=O)C(C)(C)O1)c1ccc(Cl)cc1` [Example 13], in assay [1], the IC50 turned out to be 10000 nM. Further, the inhibition in vivo at 100 mg/kg in assay [2] (setting [3]) was determined as 63%. The like results for `O=C(NC1CCCCC1)ON=C(c1ccccc1)c1ccccn1` [Example 14, Phenyl(2-pyridinyl)methanone O-[(cyclohexylamino)carbonyl]oxime] were, in that order, 1400 nM and 44%. In assay [1], `CCCCCCCCNC(=O)ON=C(c1ccccn1)c1ccccn1` [Example 16, Di(2-pyridinyl)methanone O-[(octylamino)carbonyl]oxime] registered an IC50 of 2770 nM. The inhibition in vivo at 50 mg/kg in assay [2] (setting [3]) stood at 39%.

Molecule `CCCCCCCCNC(=O)ON=C(c1ccc(F)cc1)c1ccccn1` [Example 17, (4-Fluorophenyl)(2-pyridinyl)methanone O-[(octylamino)carbonyl]oxime] returned an IC50 in assay [1] of 440 nM. In assay [2] (setting [3]), the inhibition in vivo at 50 mg/kg was 57%. Regarding `CCCCCCCCNC(=O)ON=C(c1ccc(OC)cc1)c1ccccn1` [Example 18, (4-Methoxyphenyl)(2-pyridinyl)methanone O-[(octylamino)carbonyl]oxime], the IC50 in assay [1] came out at 2100 nM. In addition, the inhibition in vivo at 65 mg/kg in assay [2] (setting [3]) turned out to be 45%. Regarding `CCCCNC(=O)ON=C(c1ccc(N(C)C)cc1)c1ccccn1` [Example 20], the “% Decrease ^14 C Chol. Absorption at 6 hr in normal rat” value in assay [2] (rat, in vivo) is 51%.
